Test results: patent US20090075309A1, “Bisdeoxycoelenterazine derivatives, methods of use, and BRET2 systems” (priority 2007, published 2009)
Read-outs that look alike come from different tables or passages of the source.

Target: HT1080 cells stably expressing the GFP2-RLuc8 fusion protein (Renilla reniformis, UniProt P27652, A143M/A55T/C124A/K136R/M185V/M253L/S130A/S287L)
Conditions: for signal half-life (time required for the initial light flux to fall to its half-value): HT1080 GFP2-RLuc8 cells, 60 μM derivatives; for intensity of the light signal among the four derivatives: FIG. 3A
Description: The kinetics of the bioluminescent reactions was evaluated by exposing the derivatives to HT1080 cells stably expressing the GFP2-RLuc8 fusion protein and detecting generated light over the course of one hour using cooled charge coupled device camera (FIG. 2).
Human fibrosracoma cell line HT1080 stably expressing GFP2-RLuc8 fusion protein was grown in Dulbecco's modified Eagle high glucose medium (DMEM, Invitrogen, Carlsbad, Calif.) supplemented with 10% fetal bovine serum (FBS), 1% penicillin-streptomycin and 500 μg/mL Zeocin™ (Invitrogen). One day before the luminescence study, 10 000 cells were plated in the 96 well plates (Corning Incorporated, Lowell, Mass.). After the removal of the medium 100 μL of the 5 μM solution of BDC in PBS and 60 μM solution of BDC derivatives in DMSO were added and luminescence measured every five minutes during one hour using an open filter setting. The acquisition time was 10 sec. Images were acquired using a cooled charged-coupled device (CCD) camera IVIS 50 (Caliper Life Sciences, Hopkinton, Mass.) and analyzed using Living Image® software version 2.50.1 (Caliper Life Sciences, Hopkinton, Mass.). Region of interest were drawn, and maximum radiance used as the measure of luminescence. The measurements were done in triplicates.

Sequence of HT1080 cells stably expressing the GFP2-RLuc8 fusion protein (P27652 whole entry A55T/C124A/S130A/K136R/A143M/M185V/M253L/S287L, the tested form may be a part): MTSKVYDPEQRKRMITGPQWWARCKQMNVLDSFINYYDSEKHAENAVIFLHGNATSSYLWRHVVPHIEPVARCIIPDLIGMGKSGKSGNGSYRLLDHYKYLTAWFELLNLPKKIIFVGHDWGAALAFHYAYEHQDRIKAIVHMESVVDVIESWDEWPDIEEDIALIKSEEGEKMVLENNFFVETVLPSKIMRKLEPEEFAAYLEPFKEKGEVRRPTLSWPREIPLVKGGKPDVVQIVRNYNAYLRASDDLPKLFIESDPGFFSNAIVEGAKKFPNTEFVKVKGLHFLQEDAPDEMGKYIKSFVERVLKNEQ

Molecule | signal half-life (time required for the initial light flux to fall to its half-value) | rate of the bioluminescent reaction / light signal decay (in words) (over one hour) | intensity of the light signal among the four derivatives | signal half-life (time required for the initial light flux to fall to its half-value) (5 μM BDC) | also measured
acetoxymethyl-bisdeoxycoelenterazine [compound 9] | over one | slower bioluminescent reactions compared to their ester counterparts | – | – | delay of the emergence of the maximum light signal compared to the parent BDC: 5 min; rate of the bioluminescent reaction / light signal decay (in words) (over one hour, listed as acetoxymethyl-BDC): slowly decayed with time
acetyl-bisdeoxycoelenterazine [compound 7] | – | fast light signal decay, similar to BDC | highest light signal | – | –
pivaloyloxymethyl-bisdeoxycoelenterazine [compound 10] | over one | slower bioluminescent reactions compared to their ester counterparts | lowest | – | observable signal 24 hours after exposure to the enzyme (24 hours, FIG. 3B): the only observable signal 24 hours after exposure to the enzyme came from it; light signal as share of the maximum intensity (lowest value reached) (over one hour): ≥ 88%; rate of the bioluminescent reaction / light signal decay (in words) (over one hour, listed as pivaloyloxymethyl-BDC): slowest bioluminescent reaction
O=c1c(Cc2ccccc2)nc2c(Cc3ccccc3)[nH]c(-c3ccccc3)cn1-2 [BDC, bisdeoxycoelenterazine] | – | – | – | 5 min | loss of initial light emission (at the 15 minute time point): ~75%
CC(C)(C)OC(=O)Oc1c(Cc2ccccc2)nc2c(Cc3ccccc3)nc(-c3ccccc3)cn12 [compound 8, O-Boc-bisdeoxycoelenterazine] | – | remained fairly stable over one hour | – | ~50 min | time of peak light emission after exposure to the RLUC8 expressing cells: 15 min
